Test results reported in paper PMC5352776, “Neutron activation increases activity of ruthenium-based complexes and induces cell death in glioma cells independent of p53 tumor suppressor gene” (Biometals, 2017).

How the values were obtained:
[1] = tested on: U87 (p53 wild-type) glioblastoma cells; test: MTT cytotoxic activity assay, U87 cells; assay type: cell-based, human; details: for Selectivity index U87: SI = IC50 MRC5/IC50 tumor cell; for IC50: 24 h exposure, MTT
Experimental: (§1) Malignant human Glioblastoma tumor cell lines U87 (p53 wild-type), T98 (p53 mutant) and normal cells MRC5 (Human Fetal Lung Fibroblast) were obtained from the American Type Culture Collection (ATCC, USA). The cells were maintained in Dulbecco’s Modified Eagle’s Medium (DMEM, Gibco), supplemented with 10% fetal bovine serum (FBS-Cultilab) and antibiotics (50 U/ml penicillin, […] streptomycin), at 37 °C in a humidified 5% CO2 atmosphere. For all experiments, cells were seeded at appropriate concentrations to ensure exponential growth.
(§2) The cytotoxicity of ruthenium(II) compounds was determined by measuring mitochondrial activity as a indicator of cell viability dependent on the reduction of MTT 3-(4,5-dimethylthiazol-2-yl)-2,5-diphenyl tetrazolium bromide to formazan (Mosmann [1983]). Cells (1.5 × 10^3/well) were seeded in 200 μl complete medium into 96-well microplates in triplicates. The plates were incubated at 37 °C in 5% CO2 for 24 h to allow cell adhesion, prior to drug testing. All radioactive or non-radioactive tested compounds were dissolved in sterile DMSO and diluted to reach final concentrations ranging from 1 × 10^−10 to 1 × 10^−4 mol l^−1. Cells were exposed to the compounds for a 24 h period and then, 0.5 mg ml^−1 of MTT solution was added to each well and further incubated for 4 h. The precipitated formazan crystals were dissolved in DMSO and the absorbance of produced color measured spectrophotometrically at 570 nm. The results were expressed as % viability of non-treated cell (control) versus drug concentration and the concentration that reduces cell viability by 50% (IC50) was calculated.

[2] = tested on: T98 (p53 mutant) glioblastoma cells; test: MTT cytotoxic activity assay, T98 cells; assay type: cell-based, human; details: for Selectivity index T98: SI = IC50 MRC5/IC50 tumor cell; for IC50: 24 h exposure, MTT
Experimental: as §1, §2

[3] = tested on: MRC5 (Human Fetal Lung Fibroblast); test: MTT cytotoxic activity assay, MRC5 normal cells; assay type: cell-based; details: 24 h exposure
Experimental: as §1, §2

[4] = Radioactive (neutron activated form)
[5] = non-radioactive compounds, listed as [Ru(pic)(bipy)(dppf)]PF6
[6] = non-radioactive compounds, listed as [Ru(pic)(bipy)(dppp)]PF6
[7] = radioactive (neutron activated) compounds

Compound | Selectivity index U87 ([1]; Non-radioactive) | IC50 ([1]; non-radioactive compounds) [nM] | Selectivity index T98 ([2]; Non-radioactive) | IC50 ([2]; non-radioactive compounds) [nM] | IC50 ([3]; non-radioactive compounds) [nM] | Selectivity index U87 [1, 4] | Selectivity index T98 [2, 4] | IC50 [1, 5] [nM] | IC50 [2, 5] [nM] | IC50 [1, 6] [nM] | IC50 [2, 6] [nM] | IC50 [1, 7] [nM] | IC50 [2, 7] [nM] | IC50 [3, 7] [nM]
N.N.[Cl][Pt][Cl] [Cisplatin, reference compound] | 2.87 | 1800 ± 200 | 0.95 | 5300 ± 1900 | 5050 ± 700 | – | – | – | – | – | – | – | – | –
F[P-](F)(F)(F)(F)F.O=C([O-])c1ccccn1.[Ru+2].c1ccc(-c2ccccn2)nc1.c1ccc(P(CCCCP(c2ccccc2)c2ccccc2)c2ccccc2)cc1 [[Ru(pic)(bipy)(dppb)]PF6 (1), [Ru(pic)(bipy)(dppb)]PF6] | 2.55 | 16100 ± 3300 | 3.45 | 11900 ± 5900 | 41000 ± 10100 | 1.63 | 1.14 | – | – | – | – | – | – | –
F[P-](F)(F)(F)(F)F.O=C([O-])c1ccccn1.[Ru+2].c1ccc(-c2ccccn2)nc1.c1ccc(P(CCP(c2ccccc2)c2ccccc2)c2ccccc2)cc1 [[Ru(pic)(bipy)(dppe)]PF6 (2), [Ru(pic)(bipy)(dppe)]PF6] | 2.95 | 27800 ± 11700 | 4.32 | 19000 ± 5900 | 82100 ± 9100 | 0.87 | 0.39 | – | – | – | – | – | – | –
F[P-](F)(F)(F)(F)F.O=C([O-])c1ccccn1.[Fe+2].[Ru+2].c1ccc(-c2ccccn2)nc1.c1ccc(P(c2ccccc2)[c-]2cccc2)cc1.c1ccc(P(c2ccccc2)[c-]2cccc2)cc1 [[Ru(pic)(bipy)(dppf)]PF6 (3), [Ru(pic)(bipy)(dppf)]PF6] | 2.23 | 4000 ± 8500 | 2.91 | 3000 ± 700 | 8900 ± 2300 | 0.90 | 0.70 | 3980 ± 850 | 3050 ± 720 | – | – | – | – | –
F[P-](F)(F)(F)(F)F.O=C([O-])c1ccccn1.[Ru+2].c1ccc(-c2ccccn2)nc1.c1ccc(P(CCCP(c2ccccc2)c2ccccc2)c2ccccc2)cc1 [[Ru(pic)(bipy)(dppp)]PF6 (4), [Ru(pic)(bipy)(dppp)]PF6] | 0.29 | 4900 ± 2500 | 0.98 | 1500 ± 500 | 1470 ± 600 | 1.52 | 0.76 | – | – | 4920 ± 2460 | 1490 ± 500 | – | – | –
[^103Ru(pic)(bipy)(dppb)]PF6 [[^103Ru(pic)(bipy)(dppb)]PF6 (1)] | – | – | – | – | – | – | – | – | – | – | – | 0.24 | 0.34 | 0.39
[^103Ru(pic)(bipy)(dppe)]PF6 [[^103Ru(pic)(bipy)(dppe)]PF6 (2)] | – | – | – | – | – | – | – | – | – | – | – | 0.23 | 0.52 | 0.2
[^103Ru(pic)(bipy)(dppf)]PF6 [[^103Ru(pic)(bipy)(dppf)]PF6 (3)] | – | – | – | – | – | – | – | – | – | – | – | 0.42 | 0.54 | 0.38
[^103Ru(pic)(bipy)(dppp)]PF6 [[^103Ru(pic)(bipy)(dppp)]PF6 (4)] | – | – | – | – | – | – | – | – | – | – | – | 0.31 | 0.62 | 0.47
